Data on two compounds can be found in patent publication US20100256199A1, “Crystalline form of an Antimalarial Compound” (Glaxo Group Limited, priority 2007, published 2010).

Each structure is given as a SMILES string.

What all share (assay type): physicochemical
The nature of series [1]: Competitive ripening experiments between Form 1 and Form 2 (relative thermodynamic stability). Here is the method:
Forms 1 and 2 of the compound of Formula (I) are both stable at ambient temperature. Competitive ripening experiments between Form 1 and 2 of the compound of Formula (I) were conducted in i) a mixture of acetone and 1-propanol at 23° C.; ii) in acetone at 10° C. and iii) in acetone at 50° C.

Series [2] is described as follows: Hygroscopicity of the crystalline form.
Series [3] in a line: Stability of the polymorphic forms at ambient temperature.

`Cc1[nH]c(CO)c(-c2ccc(Oc3ccc(OC(F)(F)F)cc3)cc2)c(=O)c1Cl` [Form 2, 3-chloro-6-(hydroxymethyl)-2-methyl-5-[4-({4-[(trifluoromethyl)oxy]phenyl}oxy)phenyl]-4(1H)-pyridinone]: the Relative thermodynamic stability result is on record as “thermodynamically more stable than Form 1” in series [1] (at ambient temperatures, for example at 23° C.); “thermodynamically more stable than Form 1” in series [1] (between 10° C. and 50° C.). Moreover, the Hygroscopic nature entry in series [2] is “non-hygroscopic”.
For `Cc1[nH]c(CO)c(-c2ccc(Oc3ccc(OC(F)(F)F)cc3)cc2)c(=O)c1Cl` [Form 1, 3-chloro-6-(hydroxymethyl)-2-methyl-5-[4-({4-[(trifluoromethyl)oxy]phenyl}oxy)phenyl]-4(1H)-pyridinone], the “Polymorphic form conversion in competitive ripening experiments” value in series [1] (i) mixture of acetone and 1-propanol at 23° C.; ii) acetone at 10° C.; iii) acetone at 50° C., same outcome in each) was “converted to Form 2”. The “Stability at ambient temperature” value in series [3] was “stable”.
